Consider 66 compounds from ChEMBL document CHEMBL3879915, “Methods of inhibiting PRMT5” (2014).

Sequence of PRMT5/MEP50 complex (O14744 whole entry, the tested form may be a part): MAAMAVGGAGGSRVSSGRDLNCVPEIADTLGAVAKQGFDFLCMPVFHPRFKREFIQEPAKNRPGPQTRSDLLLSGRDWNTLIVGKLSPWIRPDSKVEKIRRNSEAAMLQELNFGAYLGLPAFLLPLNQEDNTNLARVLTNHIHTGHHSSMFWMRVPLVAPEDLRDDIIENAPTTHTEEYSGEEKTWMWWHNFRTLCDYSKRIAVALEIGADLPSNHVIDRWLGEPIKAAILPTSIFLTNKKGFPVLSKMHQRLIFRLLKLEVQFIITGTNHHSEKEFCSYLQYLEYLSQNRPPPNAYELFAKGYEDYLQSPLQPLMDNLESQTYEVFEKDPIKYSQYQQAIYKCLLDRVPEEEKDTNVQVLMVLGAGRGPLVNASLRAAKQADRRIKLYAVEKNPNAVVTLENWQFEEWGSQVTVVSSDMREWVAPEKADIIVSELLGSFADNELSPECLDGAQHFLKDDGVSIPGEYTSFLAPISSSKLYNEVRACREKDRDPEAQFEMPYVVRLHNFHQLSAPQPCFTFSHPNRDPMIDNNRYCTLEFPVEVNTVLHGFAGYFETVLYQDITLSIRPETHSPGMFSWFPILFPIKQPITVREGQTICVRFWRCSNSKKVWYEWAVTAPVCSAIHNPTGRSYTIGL
Sequence of PRMT5/MEP50 complex (Q9BQA1 whole entry, further chain, the tested form may be a part): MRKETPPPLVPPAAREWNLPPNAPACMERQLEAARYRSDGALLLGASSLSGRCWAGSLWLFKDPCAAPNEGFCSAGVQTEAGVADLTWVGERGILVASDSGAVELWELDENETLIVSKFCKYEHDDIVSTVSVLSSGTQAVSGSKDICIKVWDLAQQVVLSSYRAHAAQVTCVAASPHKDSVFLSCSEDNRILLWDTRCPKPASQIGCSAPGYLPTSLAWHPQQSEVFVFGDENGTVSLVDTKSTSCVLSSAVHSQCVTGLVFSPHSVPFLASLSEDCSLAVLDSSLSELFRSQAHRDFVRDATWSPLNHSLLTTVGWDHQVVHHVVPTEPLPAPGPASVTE

The test has as its target PRMT5/MEP50 complex (Homo sapiens, UniProt O14744). Description: Inhibition of recombinant human fetal brain FLAG-tagged PRMT5/full length human testis 6His-tagged MEP50 expressed in baculovirus infected insect Sf9 cells using human histone H4 (1 to 15 residues) as substrate preincubated for 30 mins followed by [3H]-SAM addition.
Broadly, the IC50 is the concentration at which inhibition is half-maximal. Consider `CN(C(=O)c1cncn1C)c1cccc(OCC(O)CN2CCc3ccccc3C2)c1` (stereo unspecified), for which the half-inhibitory concentration (IC50) was 1 to 10 µM. In the case of `OC(COc1cccc(-c2ccncc2F)c1)CN1CCc2ccccc2C1` (stereo unspecified), the IC50 is 1 to 10 µM.

Consider `COc1ncc(-c2cccc(OCC(O)CN3CCc4ccccc4C3)c2)cn1` (stereo unspecified), for which the IC50 was 1 to 10 µM.

For the compound `COc1cccc2c1CN(CC(O)COc1cccc(-c3ccc4ncn(C)c4c3)c1)CC2` (stereo unspecified), the half-maximal inhibitory concentration (IC50) lay within 1 to 10 µM. In the case of `OC(COc1cccc(-c2ccc(F)cc2)c1)CN1CCc2ccccc2C1` (stereo unspecified) it was 1 to 10 µM. In the case of `CC1CN(CC(O)COc2cccc(-c3ccc4ncn(C)c4c3)c2)Cc2ccccc21` (stereo unspecified) it was 1 to 10 µM; in that of `Cn1cc2cc(-c3cccc(OCC(O)CN4CCc5ccccc5C4)c3)ccc2n1` (stereo unspecified), 1 to 10 µM; in that of `CC1Cc2ccccc2CN1CC(O)COc1cccc(-c2ccc3ncn(C)c3c2)c1` (stereo unspecified), 1 to 10 µM.

`OCc1ccc(-c2cccc(OCC(O)CN3CCc4ccccc4C3)c2)cc1` (stereo unspecified): the half-maximal inhibitory concentration (IC50) fell in the range of 1 to 10 µM.

On to `Oc1ccc(-c2cccc(OCC(O)CN3CCc4ccccc4C3)c2)cc1F` (stereo unspecified), for which the IC50 lay within 1 to 10 µM. On to `COc1cc2c(cc1OC)CN(CC(O)COc1cccc(-c3ccc4ncn(C)c4c3)c1)CC2` (stereo unspecified), for which the IC50 was more than 40 µM. In the case of `OC(COc1cccc(-c2ccccn2)c1)CN1CCc2ccccc2C1` (stereo unspecified) it was 1 to 10 µM.

On to `OC(COc1cccc(N2CCc3[nH]nc(-c4ccccc4)c3C2)c1)CN1CCc2ccccc2C1` (stereo unspecified), for which the concentration for half-maximal inhibition (IC50) lay in the range of 1 to 10 µM. For `OC(CNc1cc(-c2ccc3ncn(C4CNC4)c3c2)ccn1)CN1CCc2ccccc2C1` (stereo unspecified), the 50% inhibitory concentration (IC50) was less than 0.1 µM. For `Cn1cnc2ccc(-c3cccc(OCC(O)CN4CCc5ccc(Cl)cc5C4)c3)cc21` (stereo unspecified), the 50% inhibitory concentration (IC50) fell in the range of 1 to 10 µM. In the case of `CN(C(=O)c1cn(C)cn1)c1cccc(OCC(O)CN2CCc3ccccc3C2)c1` (stereo unspecified), the IC50 lay in the range of 1 to 10 µM. For the compound `CNC(=O)Cn1ccc2cnc(-c3cccc(OCC(O)CN4CCc5ccccc5C4)c3)nc21` (stereo unspecified), the 50% inhibitory concentration (IC50) lay within 1 to 10 µM.

Turning to `COc1ccc2c(c1)CN(CC(O)COc1cccc(-c3ccc4ncn(C)c4c3)c1)CC2` (stereo unspecified), the IC50 was in the range of 10 to 40 µM. In the case of `OC(COc1cccc(-c2cccc(Oc3ccccc3)c2)c1)CN1CCc2ccccc2C1` (stereo unspecified) it was 1 to 10 µM; in that of `OC(COc1cccc(-c2cnccn2)c1)CN1CCc2ccccc2C1` (stereo unspecified), 1 to 10 µM.

Consider `O=C(Nc1cccc(OCC(O)CN2CCc3ccccc3C2)c1)c1cnco1` (stereo unspecified), for which the half-maximal inhibitory concentration (IC50) lay within 1 to 10 µM. To `Cn1cnc2nc(-c3cccc(OCC(O)CN4CCc5ccccc5C4)c3)ncc21` (stereo unspecified) belongs 1 to 10 µM. `OC(COc1cccc(-c2ccc(Cl)cc2)c1)CN1CCc2ccccc2C1` (stereo unspecified): the IC50 was 1 to 10 µM. Regarding `CN1CC(n2cnc3ccc(-c4ccnc(NCC(O)CN5CCc6ccccc6C5)c4)cc32)C1` (stereo unspecified), the IC50 was less than 0.1 µM. For the compound `Cn1cnc2ccc(-c3cccc(OCC(O)CN4CCc5ccccc5C4CC(N)=O)c3)cc21` (stereo unspecified), the IC50 is more than 40 µM. As for `CC1CN(CC(O)COc2cccc(CNC3CCCC3)c2)Cc2ccccc21` (stereo unspecified), the IC50 was more than 40 µM. Regarding `OC(COc1cccc(C2=CCCCC2)c1)CN1CCc2ccccc2C1` (stereo unspecified), the IC50 fell in the range of 1 to 10 µM.

For `Cn1cnc2ccc(N3CCCC(OCC(O)CN4CCc5ccccc5C4)C3)cc21` (stereo unspecified), the IC50 lay in the range of 0.101 to 1 µM.

Regarding `CN(C(=O)c1cocn1)c1cccc(OCC(O)CN2CCc3ccccc3C2)c1` (stereo unspecified), the half-maximal inhibitory concentration (IC50) is 10 to 40 µM. Take `Cc1ccc(-c2cccc(OCC(O)CN3CCc4ccccc4C3)c2)cn1` (stereo unspecified): the concentration for half-maximal inhibition (IC50) lay in the range of 1 to 10 µM. Take `O=C(NC1CCOCC1)c1cccc(NCC(O)CN2CCc3ccccc3C2)c1` (stereo unspecified): the IC50 lay in the range of 10 to 40 µM. For `CCOC(=O)CC1c2ccccc2CCN1CC(O)COc1cccc(-c2ccc3ncn(C)c3c2)c1` (stereo unspecified), the IC50 lay within 1 to 10 µM. In the case of `COc1ccccc1-c1cccc(OCC(O)CN2CCc3ccccc3C2)c1` (stereo unspecified) it was 1 to 10 µM. In the case of `OC(COc1cccc(-c2ccncc2)c1)CN1CCc2ccccc2C1` (stereo unspecified) it was 1 to 10 µM. Take `CN(CC(O)CN1CCc2ccccc2C1)c1cccc(C(=O)NC2CCOCC2)c1` (stereo unspecified): the half-inhibitory concentration (IC50) was 10 to 40 µM. To `Cn1cnc2ccc(-c3cccc(OCC(O)CN4CCc5c(Cl)cccc5C4)c3)cc21` (stereo unspecified) belongs 1 to 10 µM.

As for `Cn1cnc2ccc(-c3cccc(OCC(O)CN4CCc5ccccc5C4=O)c3)cc21` (stereo unspecified), the concentration for half-maximal inhibition (IC50) is more than 40 µM.

As for `Oc1ccc(-c2cccc(OCC(O)CN3CCc4ccccc4C3)c2)cc1` (stereo unspecified), the IC50 lay within 1 to 10 µM. To `CCOC(=O)C1c2ccccc2CCN1CC(O)COc1cccc(-c2ccc3ncn(C)c3c2)c1` (stereo unspecified) belongs more than 40 µM. To `OC(COc1cccc(-c2cccc(Cl)c2)c1)CN1CCc2ccccc2C1` (stereo unspecified) belongs 1 to 10 µM. In the case of `Cc1cccc2c1CCN(CC(O)COc1cccc(-c3ccc4ncn(C)c4c3)c1)C2` (stereo unspecified), the half-maximal inhibitory concentration (IC50) was 1 to 10 µM. In the case of `Cn1cnc2ccc(-c3nccc(NCC(O)CN4CCc5ccccc5C4)n3)cc21` (stereo unspecified) it was 1 to 10 µM; in that of `O=C(c1cncc(-c2cccc(OCC(O)CN3CCc4ccccc4C3)c2)c1)N1CCCC1` (stereo unspecified), 1 to 10 µM.

Take `OC(COc1cccc(-c2cncnc2)c1)CN1CCc2ccccc2C1` (stereo unspecified): the IC50 lay within 1 to 10 µM. In the case of `OC(COC1CCN(c2ccccc2)C1)CN1CCc2ccccc2C1` (stereo unspecified) it was 1 to 10 µM; in that of `OC(COc1cccc(-c2cc(Cl)cc(C(F)(F)F)c2)c1)CN1CCc2ccccc2C1` (stereo unspecified), 1 to 10 µM; in that of `Cn1cnc2ccc(-c3cccc(OCC(O)CN4CCc5ccccc5C4(C)C)c3)cc21` (stereo unspecified), 1 to 10 µM. In the case of `CC(=O)N1CCC(n2cnc3ccc(-c4cccc(OCC(O)CN5CCc6ccccc6C5)c4)cc32)CC1` (stereo unspecified) it was 0.101 to 1 µM; in that of `Cc1ccc2c(c1)CN(CC(O)COc1cccc(-c3ccc4ncn(C)c4c3)c1)CC2` (stereo unspecified), 1 to 10 µM. In the case of `CN(C(=O)c1cccnc1)c1cccc(OCC(O)CN2CCc3ccccc3C2)c1` (stereo unspecified) it was 1 to 10 µM; in that of `O=C(Nc1cccc(OCC(O)CN2CCc3ccccc3C2)c1)c1cocn1` (stereo unspecified), 1 to 10 µM; in that of `OC(COc1cccc(-c2ccc(C(F)(F)F)cc2)c1)CN1CCc2ccccc2C1` (stereo unspecified), 1 to 10 µM. Turning to `Cn1ccc2ccc(-c3ccnc(NCC(O)CN4CCc5ccccc5C4)c3)cc21` (stereo unspecified), the IC50 was less than 0.1 µM. To `Cn1cncc1C(=O)Nc1cccc(OCC(O)CN2CCc3ccccc3C2)c1` (stereo unspecified) belongs 1 to 10 µM; to `Cc1cccc2c1CN(CC(O)COc1cccc(-c3ccc4ncn(C)c4c3)c1)CC2` (stereo unspecified), 1 to 10 µM. For `O=C(Nc1cccc(OCC(O)CN2CCc3ccccc3C2)c1)c1ccnnc1` (stereo unspecified), the half-inhibitory concentration (IC50) lay in the range of 1 to 10 µM.

In the case of `CN(C(=O)c1cnco1)c1cccc(OCC(O)CN2CCc3ccccc3C2)c1` (stereo unspecified), the IC50 was 1 to 10 µM. In the case of `CN(C)S(=O)(=O)c1cccc(-c2cccc(OCC(O)CN3CCc4ccccc4C3)c2)c1` (stereo unspecified), the half-inhibitory concentration (IC50) was more than 40 µM.

Consider `O=C(Cn1ccc2cnc(-c3cccc(OCC(O)CN4CCc5ccccc5C4)c3)nc21)N1CCCC1` (stereo unspecified), for which the IC50 lay within 0.101 to 1 µM. On to `O=C(Cn1ccc2cnc(-c3cccc(OCC(O)CN4CCc5ccccc5C4)c3)nc21)N1CCCCC1` (stereo unspecified), for which the IC50 was in the range of 0.101 to 1 µM.

With `COc1ccc(Cl)c(-c2cccc(OCC(O)CN3CCc4ccccc4C3)c2)c1` (stereo unspecified), the half-inhibitory concentration (IC50) lay within 1 to 10 µM. In the case of `OC(COc1cccc(-c2cccc(C(F)(F)F)c2)c1)CN1CCc2ccccc2C1` (stereo unspecified) it was 1 to 10 µM; in that of `COc1cccc2c1CCN(CC(O)COc1cccc(-c3ccc4ncn(C)c4c3)c1)C2` (stereo unspecified), 1 to 10 µM.

On to `Cn1cnc2ccc(-c3cccc(OCC(O)CN4CCc5ccccc5C4Cc4ccccc4)c3)cc21` (stereo unspecified), for which the IC50 is more than 40 µM.

In the case of `OC(COc1cccc(-c2cncc(F)c2)c1)CN1CCc2ccccc2C1` (stereo unspecified), the half-maximal inhibitory concentration (IC50) is 1 to 10 µM. With `Cn1cnc2ccc(-c3cccc(OCC(O)CN4CCc5ccccc5C4COc4ccccc4)c3)cc21` (stereo unspecified), the IC50 was more than 40 µM.
